From patent US20050180954A1, “Drug for treating bone disorders” (priority 1995, published 2005) come the findings set out here.

One test has as its system MC3T3-E1 cells. The experiment in a line: Mineralization of murine osteoblasts, Von Kossa stain (in vitro multiple administration). The class given is cell-based, mouse. Particulars: MC3T3-E1, twice administration, Von Kossa on Day 9. How it is done: MC3T3-E1 cells were placed in each well in 24-well plates in an amount of 30,000 cells/well and cultured to confluency. The medium was removed and fresh α-MEM containing 10% JCS, 50 μg/ml of L-ascorbic acid and 10 mM β-glycerophosphate was added in an amount of 0.9 ml/well, followed by adding 0.1 ml/well of medium containing varying concentration of IFN. The medium was replaced with the medium containing the respective concentration of IFN every 4 days. On Day 9 from the first treatment with IFN, Von Kossa stain was performed to visualize the calcified foci.

For test [1], the system named is ovariectomized mice of ddy strain. The experiment in a line: Osteoporosis model mice (ovariectomy): dry bone weight of femur. It is filed as in vivo, mouse. How it is done: Female mice of ddy strain of 8 weeks old were divided into 5 groups and experiment was carried out. Bilateral ovariectomy was performed on the mice in 3 groups and sham operation alone was performed on the mice in 2 groups. Thereafter, the mice were raised with normal diet for 1 month, thereby making the state of osteoporosis in the ovariectomized groups. In this model, it is known that the mice become the state of osteoporosis 2 to 3 weeks after the ovariectomy (T. Hosaka et al., ANITEX, Vol. 5, 243, 1992; Miyaura, C. et al., J. Bone Mineral Res., 10, 1365, 1995). From the third weeks from the ovariectomy, murine IFN was subcutaneously administered (100 μl/head/time) once per day, totally 25 times. On Day 30 from the beginning of administration, under ether anesthesia, body weight was measured, blood was collected, and femur was collected and dry bone weight thereof was measured for each mouse.
Drying of femur was performed as follows. That is, femur was fixed with 2 ml of 70% ethanol per one taken out femur at room temperature for 24 hours and then the attached muscles and connective tissues were carefully removed with a forceps and surgical knife with replaceable blade. After immersing the femur in fresh 70% ethanol for 72 hours at room temperature, the femur was dried in a hot wind-generating incubator (Koukensha Engineering. Co., Tokyo) at 55° C. for 24 hours. The weight of the dried bone was measured with an electronic force balance (Mettler AE50, Metteler Instrumente AG, Switzerland). Murine IFN to be administered was diluted to the desired concentration with physiological saline. During the test, urine of mice was collected with metabolic cage (KN-645, Natsumeseisakusho, Tokyo) and frozen to store. To one group subjected to the sham operation, physiological saline (Otsuka Pharmaceutical Co.) was administered, and to another group subjected to the sham operation, murine IFNβ was administered at a dose of 10^5 units/head/time (diluted with physiological saline when use). […]

With “MuIFNβ: murine interferon β, Lot M-0034, prepared by Toray Industries, Inc. by genetic engineering technique”, the “number of calcified foci and intensity of staining” value in the test with MC3T3-E1 cells is on record as “dose dependently increased”. For the same substance, the “bone volume (dry bone weight of femur)” value is “exhibited prevention effect against further loss in the bone volume” in test [1] (ovariectomized mice, 10^3 units/head/time s.c.); “recovered the normal level of bone volume” in test [1] (ovariectomized mice, 10^5 units/head/time s.c. once per day, 25 times, Day 30); “significant increase in the bone volume was not observed” in test [1] (sham operation mice, 10^5 units/head/time s.c.).
